Entries after “also recorded” stand apart in the source; their conditions may differ. Read-outs that look alike come from different tables or passages of the source.
How the values were obtained:
Assay type in all cases: cell-based, human
HaCaT cells [1] = experiment: In vitro wound scratch assay, HaCaT cells; settings: for faster closing of the scratch: HaCaT cells, 500 μM, observed for two days
Text: (§1) The MAP kinases p38 and ERK1/2 are often associated with increased proliferation and migration in epidermal wound healing. For this reason, in a further physiological experiment, the effect of Sandalore® on “wound healing” of a confluent cell layer of HaCaT cells or primary keratinocytes was investigated. For this purpose, the wound scratch assay was used, which is an established in vitro method for initial investigations of wound healing processes in keratinocytes.
In order to investigate the role of the OR2AT4 receptor in this effect, a test was conducted to determine whether the two antagonists Oxyphenylon and Phenirat could again reduce the “wound healing” increased by Sandalore®. For this purpose, Sandalore® was mixed with one of the antagonists each in the same ratio, and the effect on “wound healing” of the HaCaT cells was again observed for 48 hours. […] The two antagonists alone had no effect on the “wound healing” (FIG. 18d). The role of the MAP kinases p38 and ERK1/2 was investigated by means of specific inhibitors of the kinases. For p38 MAPK, the […] SB203580 was used, and for ERK1/2 MAPK, the […] U0126 was used. […] The two inhibitors alone had no effect on the wound healing (FIG. 18d).
Effect of Sandalore® stimulation on human keratinocytes in an in vitro “wound healing” assay. Investigation of the “wound healing rate” of A) primary keratinocytes and B) HaCaT cells by means of a wound scratch assay in the presence of Sandalore® (500 μM) or 0.1% DMSO as a control. Left: Transmitted light images of the “wound” observed at various times. The growth margin of the cells was surrounded in black. Scale: 200 μm. Right: Quantitative evaluation of the wound scratch assay. The areas of the wounds were measured and compared to the initial wound (0 h). Mean values including standard error. Mann-Whitney U test; n=4 experiments. *: p<0.05; ***: p<0.001. C) Wound scratch assay in the presence of Sandalore® (500 μM) and one of the antagonists Oxyphenylon (500 μM) or Phenirat (500 μM) respectively, the p38 MAPK inhibitor 5B203580 (10 μM), or the ERK1/2 MAPK inhibitor U0126 (10 μM). The measured wound areas of the treated cells (after 48-hour stimulation) were compared to the control (0.1% DMSO). Mean values including standard error. Kruskal-Wallis test with multiple comparison; n=3 experiments. *: p<0.05. D) Controls for the wound scratch assay with Oxyphenylon (500 μM), Phenirat (500 μM), 5B203580 (10 μM), or U0126 (10 μM) carried out under C). The measured wound areas of the treated cells were compared to the control (0.1% DMSO). Mean value included.

HaCaT cells [2] = experiment: Calcium imaging in HaCaT cells; settings: for calcium signals on repeated stimulation: repeated application (500 μM in FIG. 9); for EC50: calcium signal amplitude, read-out: ECR50R value
Protocol: In the fourth application, saturation occurred at approx. 500 μM (FIG. 9d). The ECR50R value was 430 μM of Sandalore® in the first application and 112 μM of Sandalore® in the fourth application.
The Sandalore®-induced signal cascade in HaCaT cells and primary keratinocytes was pharmacologically characterized using the calcium imaging technique and specific blockers of signal cascade proteins. An investigation was first conducted in order to determine whether the calcium signals are caused by calcium inflow from the extracellular space. For this purpose, a calcium-free extracellular solution was used with a calcium chelator (EGTA) added. […] In order to investigate the role of adenylyl cyclase, the specific blockers SQ-22536 and MDL-12330A were used. […] The efficacy of the blockers was tested in this case with histamine, which activated the PLC signalling pathway (FIG. 11c). […]
In order to characterize the antagonists, HaCaT cells were first repeatedly stimulated with Sandalore® (1 mM). On the third application, costimulation (1:1) with Sandalore® and one of the antagonists took place. […] Based on this, dose-dependent characterization of inhibition was to be carried out. For this purpose, Sandalore® and the antagonists were costimulated with different concentrations.
Effect of the OR2AT4 ligand Sandalore® on intracellular calcium concentration of cultivated keratinocytes. […] 100 μM of ATP was used at the end of each measurement as a positive control stimulus. Right: Quantitative evaluation of calcium signals in 4-time application of Sandalore® (500 μM). Shown are the mean values of the individual applications including standard error. Mann-Whitney U test. *: p<0.05. C) and D): dose-dependent activation of HaCaT cells in calcium imaging experiments. Shown are the mean amplitudes including standard error at various concentrations in the first (C) and fourth (D) Sandalore® application. Number of cells measured: 0.0125 mM (39), 0.025 mM (30), 0.1 mM (46), 0.5 mM (34), 1 mM (63), 2 mM (41), 10 mM (36).
A) Representative calcium imaging traces of HaCaT cells (left) and primary keratinocytes (right) incubated with the gap junction blocker 1-octanol (500 μM) and then repeatedly stimulated with Sandalore® (500 μM, horizontal bars) (blue trace). […] 100 μM of ATP was used at the end of each measurement as a positive control stimulus. Quantitative evaluation of HaCaT cells (B) and primary keratinocytes (C) incubated with the gap junction blockers 1-octanol (500 μM) or carbenoxolone (10 μM) and then repeatedly stimulated with Sandalore® (500 μM) or Lyral (1 mM) in calcium imaging experiments. Shown are the mean values of the individual applications including standard error relative to the control measurements (Sandalore® application without blocker). Mann-Whitney U test. Number of cells measured: Sandalore®+1-octanol (HaCaT (110), keratinocytes (26)); Sandalore®+carbenoxolone: HaCaT (74); Lyral+carbenoxolone: HaCaT (43). ***: p<0.001.
Pharmacological characterization of Sandalore®-induced signal cascade in human keratinocytes. A)-D). Shown are representative calcium imaging traces of primary keratinocytes in the presence of a blocker (blue). The horizontal bars correspond to the application times. 100 μM of ATP was used at the end of each measurement as a positive control stimulus. A) Measurement with calcium-free extracellular solution (+10 mM EGTA). B) Measurement with the adenylyl cyclase blocker SQ-22536 (100 μM). C) Use of the phospholipase-C blocker U-73122 (10 μM). 100 μM of histamine was taken as a positive control. D) Measurement with the CNG channel blocker L-cis-diltiazem (150 μM). E) Overview of pharmacological measurement of HaCaT cells and primary keratinocytes (Kera). The mean amplitudes relative to the control measurements (dashed line) are indicated. MDL-12330A (40 μM). […]

primary keratinocytes = experiment: In vitro wound scratch assay, primary keratinocytes; settings: 500 μM, observed for two days
Text: as §1
Effect of Sandalore® stimulation on human keratinocytes in an in vitro “wound healing” assay. Investigation of the “wound healing rate” of A) primary keratinocytes and B) HaCaT cells by means of a wound scratch assay in the presence of Sandalore® (500 μM) or 0.1% DMSO as a control. Left: Transmitted light images of the “wound” observed at various times. The growth margin of the cells was surrounded in black. Scale: 200 μm. Right: Quantitative evaluation of the wound scratch assay. The areas of the wounds were measured and compared to the initial wound (0 h). Mean values including standard error. Mann-Whitney U test; n=4 experiments. *: p<0.05; ***: p<0.001. […] The measured wound areas of the treated cells (after 48-hour stimulation) were compared to the control (0.1% DMSO). […] The measured wound areas of the treated cells were compared to the control (0.1% DMSO). […]

CC1=CCC(CCC(C)CO)C1(C)C (stereo not shown) [Brahmanol®]
faster closing of the scratch (HaCaT cells [1]): 26%
calcium signals on repeated stimulation (HaCaT cells [2]; HaCaT cells): significant sensitization
faster closing of the scratch (primary keratinocytes): 34%

CC(=O)CCc1ccc(O)cc1 [Oxyphenylon]
Sandalore-increased wound healing on coincubation (HaCaT cells [1]; HaCaT, 48 hours, Sandalore 500 μM + antagonist 500 μM or inhibitor 10 μM): reduced “wound healing” to the normal level
effect of the substance alone on wound healing (HaCaT cells [1]; HaCaT, antagonist 500 μM or inhibitor 10 μM alone): no effect
inhibitory action on Sandalore-induced calcium signals (HaCaT cells [2]; Sandalore 500 μM + antagonist 100 μM): disappeared completely
amplitude heights, % of the control amplitudes (HaCaT cells [2]; Sandalore 500 μM + antagonist 250 μM): 39%
calcium signals, % of the control amplitude (Sandalore without antagonists) (HaCaT cells [2]; Sandalore 500 μM + antagonist 500 μM): 8%
blocking of Sandalore-induced calcium signals (HaCaT cells [2]; antagonist 500 μM, Sandalore 750 μM): decreased
inhibition of Sandalore-induced calcium signals (HaCaT cells [2]; antagonist 500 μM, Sandalore 1 mM): completely eliminated
IC50 (HaCaT cells [2]; inhibition of calcium signals induced by 500 μM Sandalore, read-out: IC50 values (mean inhibitory concentrations)): 174 µM
effect on Sandalore-induced calcium signals on coapplication (HaCaT cells [2]; third application, costimulation 1:1 with Sandalore 1 mM): significant reduction

CC1=CCC(CCC(C)C(C)O)C1(C)C (stereo not shown) [Sandalore®]
faster closing of the scratch (HaCaT cells [1]): 26%
share of cells repeatedly stimulated (HaCaT cells [2]; HaCaT cells, calcium imaging): 80-90%
calcium signals on repeated stimulation (HaCaT cells [2]; HaCaT cells): significant sensitization; also recorded: induced calcium signals
calcium signals on repeated stimulation (HaCaT cells [2]; HaCaT cells, listed as Sandalore): significant sensitization
concentration at which dose-dependent activation begins (HaCaT cells [2]; amplitude of the first application): 100 µM
EC50 (HaCaT cells [2]; first application): 430 µM
EC50 (HaCaT cells [2]; fourth application): 112 µM
concentration from which saturation is reached (HaCaT cells [2]; first application): approx. 2 mM
concentration at which saturation occurred (HaCaT cells [2]; fourth application): approx. 500 μM
faster closing of the scratch (primary keratinocytes): 34%

Source: patent US10835500B2, “Medicament for accelerated wound healing” (Symrise AG, priority 2014, dated 2020)
